Assay results from patent US20250144128A1, “CANCER TREATMENT” (Nucana plc, priority 2022, published 2025).

Legend:
[1] = system: A375 melanoma or A549 lung cancer cell lines; experiment: mRNA decrease in the cell line studies (RT-qPCR), cell line not specified; type: cell-based; conditions: NUC-7738 10 uM vs DMSO
Method: (§1) A375 melanoma cell lines and A549 lung cancer cell lines were treated with solvent-control DMSO or NUC-7738 (10 uM) for 72 hours, after which media supernatants were collected for either soluble PD-L1 analysis or EV isolation. In addition, adherent cells were collected for RNA and protein isolation.
To determine RNA expression of soluble transcript, cells were lysed and RNA isolated using the RNAeasy Kit (Qiagen, Cat #74136). This was then followed by RNA reverse transcription into cDNA using QuantiNova Reverse Transcription Kit (Qiagen, Cat #205413). Primers for each gene were designed using PrimerQuest™ (Integrated DNA Technologies) and ordered at 100 uM concentrations from IDT. The soluble PD-L1 transcript primer was designed to create an amplicon of about 100 bp size crossing the exon 4 and intron 4 junction.
RT-qPCR was carried out using the qPCRBIO SyGreen MasterMix kit (PCRBiossystems Cat #PB20.14-50) and the Rotor qene Q qPCR machine (Qiagen). Ct values were analysed using the Rotor qene Q Software. Fold change were calculated using the AACt values.

[2] = system: sPD-L1, A375 melanoma or A549 lung cancer cell lines; experiment: sPD-L1 in media supernatant in the cell line studies (sandwich ELISA), cell line not specified; type: cell-based; conditions: NUC-7738 10 uM vs DMSO
Method: For sPDL1 analysis, a similar process was undertaken. Cells were grown in Corning® 100 mm TC-treated Culture Dish with DMEM, high glucose, GlutaMAX™ Supplement (ThermoFisher Cat #10566016) supplemented with 10% FBS and 1% Penicillin-Streptomycin (ThermoFisher Cat #15070063), with approximately 2×10^6 cells.
as §1
Patient plasma samples were centrifuged at 3000×g for 15 minutes to remove cellular debris. […]
For quantitative measurement of soluble PD-L1 in patient and in-vitro samples Quantikine® ELISA Human/Cynomolgus Monkey PD-L1/B7-H1 Immunoassay (R&D Systems Cat. #DB7H10) was used as per manufacturers recommendation. […]
In brief, the protocol included the preparation of the standard curve from the Human/Cynomolgus Monkey PD-L1/B7-H1 protein standard ranging from […]. […] The wells were read using a microplate reader set to 450 nm and 540 nm for wavelength correction to determine the optical density.
Analysis of the results included subtracting the 540 nm readings from 450 nm reading and subtracting blank, diluent only, sample readings. […]

[3] = system: ExoPD-L1, A375 melanoma or A549 lung cancer cell lines; experiment: ExoPD-L1 protein in exosomes from the cell line studies; type: cell-based; conditions: NUC-7738 10 uM vs DMSO
Method: For Extracellular Vesicle (EV, exosome) preparation, cells were cultured in T175 Nunc™ EasYFlask™ Cell Culture Flasks (ThermoFisher Cat #159910), approximately 50×10^6 cells. Cells were grown in DMEM, high glucose, GlutaMAX™ Supplement (ThermoFisher Cat #10566016) supplemented with 5% exosome free FBS and 1% Penicillin-Streptomycin (ThermoFisher Cat #15070063).
as §1
Isolation of exosomes from in-vitro samples involved growing cells in 5 separate T175 Nunc™ EasYFlask™ Cell Culture Flasks (ThermoFisher Cat #159910) which approximated to 50×10^6 cells. Cells were grown in DMEM, high glucose, GlutaMAX™ Supplement (ThermoFisher Cat #10566016) in addition, this was supplemented with exosome free FBS. […]
Analysis of PD-L1 expression in exosomes isolated from plasma samples was carried out using automated western blotting JESS system (BioTechne, ProteinSimples). […] The expression was determined by the area under the curve using Compass Software v 6.1 (ProteinSimple).

exosomal PD-L1 [4] = experiment: exosomal PD-L1 in plasma of patients treated with NUC-7738 (capillary-based immune probing, PD-L1/CD81); type: in vivo, human; conditions: plasma exosomes; for PD-L1/CD81 values: 24 h Post C1
Method: Patients were treated with NUC-7738 on days 1 and 8 of a 14-day cycle. Patient plasma samples were collected pre-dose, 24 hr after NUC-7738 dosage and the 24 hours post Cycle 2 (that is the second occasion at which patients received treatment).
Patient plasma samples were centrifuged at 3000×g for 15 minutes to remove cellular debris. Then, the supernatant was aliquoted in 250 μL measures and stored in−80° C. freezers. For exosomal isolation ExoQuick® ULTRA EV Isolation Kit for Serum and Plasma (System Biosciences Cat #EQULTRA-20A-1) according to manufacturer's protocol. In brief, 250 μL of plasma samples free of cellular debris was used and 67 μL ExoQuick Solution was added, followed by a 30 minute incubation period at 4° C. After that, the plasma sample and ExoQuick Solution mixture were centrifuged at 3000×g for 10 minutes. Then, carefully without disturbing the pellet, all of the supernatant was aspirated off, making sure no residual traces remained. Next, the pellet was resuspended in Buffer B provided, followed by the addition of Buffer A. The samples was homogenised in the buffer by carefully pipetting up and down until no clumps of the pellet were seen. The resin purification columns were conditioned by removing the storage buffer and washing it with Buffer B. The samples were added to the conditioned purification column and centrifuged at 1000×g for 30 seconds. The eluted samples were quantified for protein concentration using Qubit™ Protein and Protein Broad Range (BR) Assay Kits (Thermofisher Cat #A50668). Samples were then aliquoted according to the required amounts for the downstream applications and stored −80° C.
Analysis of PD-L1 expression in exosomes isolated from plasma samples was carried out using automated western blotting JESS system (BioTechne, ProteinSimples). The 12-230 kDa Separation Module of 25 capillaries kit (ProteinSimple, Cat #SM-W004) was used per manufacture protocol. Briefly, samples were prepared at the appropriate concentration using the kit master-mix and sample dilution buffer containing DT, samples were then denatured for 5 minutes at 95° C. All samples, primary antibodies and secondary antibodies were loaded into the plate provided. Anti-CD81 antibody [M38] (Abcam, Cat #ab79559) diluted at 1:100 and PD-L1 (E1L3N®) XP® Rabbit mAb (Cell Signalling, Cat #13684) diluted at 1:50 were used. Secondary antibodies used were from the anti-mouse chemiluminescence (ProteinSimple, Cat #DM002) and anti-rabbit near-infrared (NIR) (ProteinSimple, Cat #DM007) detection module, they were used at recommended dilution. The prepared plates and capillaries were then loaded onto the JESS, and sample run at the defaults settings. The expression was determined by the area under the curve using Compass Software v 6.1 (ProteinSimple).

exosomal PD-L1 [5] = experiment: as above; type: in vivo, human; conditions: for PD-L1/CD81 values: plasma exosomes, Pre C2 (15 days after initial cycle)
[6] = system: adenosine deaminase (ADA); conditions: inactive metabolite 3′-deoxyinosine; Tsai et al. 2010; cited from earlier work
[7] = patient 001-002, Pre C1 (untreated) 0.044
[8] = patient 001-019, Pre C1 (untreated) 0.039
[9] = patient 002-002, Pre C1 (untreated) 0.035
[10] = patient 003-008, Pre C1 (untreated) 0.045

Structure (SMILES) | decrease of mRNA [1] | time dependent decrease of sPD-L1 expression in the media supernatant [2] | reduction of ExoPD-L1 protein [3] | PD-L1/CD81 values (exosomal PD-L1 [4]; [7]) | time within which the reduction of the PD-L1/CD81 ratio is seen (exosomal PD-L1 [4]; patient 001-019) | PD-L1/CD81 values (exosomal PD-L1 [4]; [8]) | PD-L1/CD81 values (exosomal PD-L1 [4]; [9]) | PD-L1/CD81 values (exosomal PD-L1 [4]; [10]) | PD-L1/CD81 values (exosomal PD-L1 [5]; [7]) | PD-L1/CD81 values (exosomal PD-L1 [5]; [8]) | PD-L1/CD81 values (exosomal PD-L1 [5]; [9]) | PD-L1/CD81 values (exosomal PD-L1 [5]; [10]) | reductions in Exo-PD-L1 compared to pre-treatment levels (exosomal PD-L1 [5]; preliminary studies, serum from 4 patients treated with NUC-7738) | metabolism after administration, in vivo [6]
C[C@H](NP(=O)(OC[C@@H]1CC(O)[C@H](n2cnc3c(N)ncnc32)O1)Oc1ccccc1)C(=O)OCc1ccccc1 (stereo partly drawn) [NUC-7738, 3′-deoxyadenosine-5′-O-[phenyl(benzyloxy-L-alaninyl)] phosphate] | up to 40% | up to 3 fold | 50% | 0.047 | ≤ 24 h | 0.02 | 0.043 | 0.041 | 0.025 | 0.049 | 0.023 | 0.029 | ≤ 50% | 
Nc1ncnc2c1ncn2[C@@H]1O[C@H](CO)C[C@H]1O [3′-dA, 3′-deoxyadenosine] |  |  |  |  |  |  |  |  |  |  |  |  |  | quickly deaminated by adenosine deaminase (ADA), and rapidly metabolized to an inactive metabolite
